Source: patent US9675576B2, “Polyenolic zinc-binding agents (pezbins) actively promote inactivation of cancer stem cells and potentiate cytotoxic anti-tumor drug substances” (The Research Foundation for The State University of New York, priority 2012, dated 2017)

Key:
c-Myc, Sox-2 and Oct4 = test: Western blot of key transcription factors; type: cell-based, human; settings: nuclear extracts of CD133+ and bulk PPT2 cells
Protocol: Cells were lysed using Active Motif Nuclear Co-ip kit according to manufacturer's protocol. 20 μg of enriched nuclear and cytoplasmic extracts was subjected to electrophoresis in 10% polyacrylamide gel. The proteins were then transferred to a nitrocellulose membrane and developed with appropriate antibodies.

[1] = tested on: Oct-4, Sox-2, Nanog, Lin-28 and c-Myc; test: Stem cell-specific PCR array on 3D spheroids induced by CD133high/CD44high cells; type: cell-based; settings: single treatment with 0.01 μg/ml
Protocol: Stem cell-specific gene expression profiles were studied with the PCR Array assay (SABiosciences, CA) in accordance with the manufacturer's recommendations. Briefly, total RNA was isolated from different cell populations (cancer stem cells expressing high levels of the CD133 and CD44, or whole floating spheroids that are enriched with CSCs) using PARIS kit (Ambion). Up to 1 μg of total RNA was treated with DNase and cDNA was prepared using RT^2 First Strand kit. For each analysis, pairs of the test and control cDNA samples were mixed with RT^2 qPCR Master mix and distributed across the PCR array 96-well plates, each of which contained 84 stem cell-related probes and control housekeeping genes. After cycling with real-time PCR (Opticon MJ Research or ABI 7300, Applied Biosystems), obtained amplification data (fold-changes in Ct values of all the genes) was analyzed with SABiosciences software.
Since CSC-enriched CD 133^+ and CD44^+ cell populations are more resistant to conventional therapies than other more differentiated cells, the cytotoxic effects of SBT-1214 were tested against such cell populations in colon (Botchkina et al., 2010) and prostate (FIG. 5) cancers. […]

[2] = tested on: prostate CD133+ cells (PPT2 and PC3MM2); test: MTT cytotoxicity assay, results stated for prostate CD133+ cells without split by line; type: cell-based, human; settings: 48-72 hours, 10 nM to 10 μM, stated as up to
Protocol: (§1) The CSC-specific cytotoxic effects were studied in two different settings both of which are known to maintain/promote sternness phenotype: adherent to type I collagen cultures and 3D cultures of floating spheroids (Baretton, G. B. 1994; Miyoshi, Y. 2000; Koivisto, P. 1995). The CD133^high/CD44^high cells (1×10^3 cells/well) isolated either from PPT2 or PC3MM2 cell lines were seeded onto the type I collagen-coated 96-well plates, cultured in the MSCGM for 2 days, and the treatment was initiated upon 90% confluency. Paclitaxel, SBT-1214 and CMC2.24 were dissolved in sterile DMSO and then serially diluted in MSCGM. For testing the SBT-1214/CMC2.24 combination efficacy, the regular MSCGM was replaced with treatment medium containing SBT-1214 or Ptx at selected concentration range (from 10 nM to 10 μM) with 30 μM CMC2.24. Treatment medium was removed 24, 48 or 72 hr later, followed by return to the MSCGM. Cell death was analyzed on adherent type I collagen cell cultures with the MTT assay [MTT=3-(4,5-dimethylthiazol-2-yl)-2,5-diphenyltetrazolium bromide] as recommended by manufacturer (Invitrogen). Spheroids were cultured and treated on ULA plates.
(§2) The dose-response cytotoxicity of SBT-1214, CMC2.24/and their combination was evaluated by standard MTT assay (all of the in vitro experiments were repeated at least three times and each measurement for the MMT assay was performed in 4 repeats). The dose-response points were plotted as a percentage of the untreated control, the absorbance of which was considered as 100%. Data were expressed as means±SD for each drug concentration. The in vivo responses to drug treatment were evaluated as changes in tumor volume of drug-treated versus untreated control xenografts induced by particular type of cells. Data were expressed as means±SD for control and drug treated tumors. The statistical significance of differences was determined using Student's t-test. The parameters used were the two-tailed distribution and the paired test. P<0.05 was considered statistically significant.

[3] = Systemic toxicity in tumor-bearing mice; type: in vivo, NOD/SCID mice
Protocol: (§3) Animals were handled according to protocols that have been approved by the Institutional Animal Care and Use committee of the Stony Brook University. The staff of veterinarians provided veterinary care. The SBT-1214 was administered intravenously (40, 20, 20, 20 mg/kg; weekly) to 6-weeks old NOD/SCID mice. Treatment was started 2-3 weeks after transplantation of the tumor cells, when tumor xenografts reached ˜100 mm^3. Systemic toxicity in NOD/SCID mice was closely monitored and evaluated by standard criteria (motor activity, morbidity, appetite, posture and appearance). One week after the last treatment, all residual tumors were harvested and analyzed histopathologically and for ex vivo clonogenic capacity. One part of each mouse tumor xenograft was snap-frozen in embedding matrix (Lipshaw) and kept at −80° C. before immunohistochemical analysis at standard conditions. […] Ability to induce the round colonies (holoclones) was also determined before and after drug treatment. Cells were counted and plated on 48-well plates at a final count of 300 cells per well. One week after initiation, the plates were inspected for colony growth and the number of colonies within each well was quantified by phase contrast microscopy. After drug treatment, one portion of cells which survived particular treatment regimen was placed at 3D and adherent culture conditions and analyzed. […]

CD133+ PPT2 cells = type: cell-based, human
Protocol: as §1, §2

PPT2-induced tumors = test: Residual tumors after treatment, viable cells and ex vivo colonies, PPT2; type: in vivo, NOD/SCID mice; settings: 40, 20, 20, 20 mg/kg weekly, one week after last treatment
Protocol: as §3

[4] = tested on: PPT2 and PC3MM2 floating spheroids; test: Sphere formation assay after drug treatment; type: cell-based, human; settings: 1 μM, 24 hours
Protocol: In order to obtain prostate cancer spheroids, MACS-CD133 and MACS-CD44 (Miltenyi Biotec, CA) or FACS sorted CD133^high/CD44^high cells were seeded at low numbers on ULA plates (1,000 cells per 6-well plate or 5-10,000 cells per 75 mm flasks) in MSCGM or SPCM. For evaluation of the clonogenic/sphere-forming capacity, cells were counted with Cellometer Auto T4 (Nexcelom Bioscience LLC, MA), resuspended in 1:4 type I collagen/SPCM or 1:4 Matrigel/MSGM and known cell numbers were plated on ULA plates. One week after initiation plates were inspected for floating sphere growth and compact well-shaped spheroids were counted. Spheroids were serially passaged by gentle dissociation and mixing with a new Matrigel/MSGM or type I collagen/SPCM, or reseeded on 48-well plates for final count of 5-10 spheres per well for further propagation and analysis.

Structure (SMILES): CC(=O)O[C@@]12CO[C@@H]1C[C@H](O)[C@@]1(C)C(=O)[C@H](OC(=O)C3CC3)C3=C(C)[C@@H](OC(=O)[C@H](O)[C@H](C=C(C)C)NC(=O)OC(C)(C)C)C[C@@](O)([C@@H](OC(=O)c4ccccc4)[C@H]21)C3(C)C [SBT-1214]
- c-Myc and Sox2 expression (c-Myc, Sox-2 and Oct4): moderate down-regulation
- expression of key regulators of pluripotency [1]: significantly inhibited
- CD133+ cells killed [2]: up to 60%
- systemic toxicity ([3]; 40, 20, 20, 20 mg/kg weekly): much lower systemic toxicity
- systemic toxicity ([3]; 40, 40, 40 mg/kg weekly): all mice expressed common signs of systemic toxicity
- cytotoxicity at lower concentrations compared to 10 μM (CD133+ PPT2 cells; 100 nM-1 μM versus 10 μM, 48-72 hours): higher cytotoxicity
- cell death (CD133+ PPT2 cells; 72 hours, 10 nM-10 μM, stated as up to): up to 65%
- residual tumors without viable cells and without colonies in culture (PPT2-induced tumors): Four of six
- ability to induce secondary 3D spheroids or collagen-adherent colonies [4]: lost their ability to induce both secondary 3D spheroids
